Experimental data: ChEMBL document CHEMBL3046293, “Fungicidal Activities of -Methoxyphenylacetic Acid Derivatives” (2002)

Key:
Assay type in all cases: functional
Botrytis cinerea [1] = assay: Fungicidal activity against Botryotinia fuckeliana assessed as cucumber gray mold disease control at 125 ppm treated 24 hr before inoculation by preventive manner
Podosphaera fuliginea [2] = assay: Fungicidal activity against Podosphaera fuliginea assessed as cucumber powdery mildew disease control at 7.8 ppm treated 24 hr before inoculation by preventive manner
Pyricularia oryzae [3] = assay: Fungicidal activity against Magnaporthe oryzae Cav. race 003 assessed as rice blast disease control at 125 ppm treated 24 hr before inoculation by preventive manner
Pyricularia oryzae [4] = assay: Fungicidal activity against Magnaporthe oryzae Cav. race 003 assessed as rice blast disease control at 31.3 ppm treated 24 hr before inoculation by preventive manner
Botrytis cinerea [5] = assay: Fungicidal activity against Botryotinia fuckeliana assessed as cucumber gray mold disease control at 7.8 ppm treated 24 hr before inoculation by preventive manner
[6] = tested on: Pseudoperonospora cubensis; assay: Fungicidal activity against Pseudoperonospora cubensis assessed as cucumber downy mildew disease control at 125 ppm foliar application 24 hr before inoculation onto the abaxial(treated) surface of leaf by preventive manner
Blumeria graminis [7] = assay: Fungicidal activity against Blumeria graminis f. sp. tritici assessed as wheat powdery mildew disease control at 7.8 ppm foliar application for 24 hr before inoculation by preventive manner
Thanatephorus cucumeris [8] = assay: Fungicidal activity against Thanatephorus cucumeris assessed as rice sheath blight disease control at 31.3 ppm foliar application for 24 hr after inoculation by curative manner
Pyricularia oryzae [9] = assay: Fungicidal activity against Magnaporthe oryzae Cav. race 003 assessed as rice blast disease control at 2 ppm foliar application for 24 hr before inoculation by preventive manner
[10] = tested on: Pseudoperonospora cubensis; assay: Fungicidal activity against Pseudoperonospora cubensis assessed as cucumber downy mildew disease control at 31.3 ppm foliar application 24 hr after inoculation by curative manner
Podosphaera fuliginea [11] = assay: Fungicidal activity against Podosphaera fuliginea assessed as cucumber powdery mildew control at 0.125 ppm foliar application 24 hr after inoculation by curative manner
Blumeria graminis [12] = assay: Fungicidal activity against Blumeria graminis f. sp. tritici assessed as wheat powdery mildew disease control at 125 ppm foliar application for 24 hr before inoculation by preventive manner
Botrytis cinerea [13] = assay: Fungicidal activity against Botryotinia fuckeliana assessed as cucumber gray mold disease control at 7.8 ppm foliar application 24 hr before inoculation by preventive manner
Blumeria graminis [14] = assay: Fungicidal activity against Blumeria graminis f. sp. tritici assessed as wheat powdery mildew disease control at 2 ppm foliar application for 24 hr before inoculation by preventive manner
Botrytis cinerea [15] = assay: Fungicidal activity against Botryotinia fuckeliana assessed as cucumber gray mold disease control at 31.3 ppm foliar application 24 hr after inoculation by curative manner
Blumeria graminis [16] = assay: Fungicidal activity against Blumeria graminis f. sp. tritici assessed as wheat powdery mildew disease control at 31.3 ppm foliar application for 24 hr before inoculation by preventive manner
Pyricularia oryzae [17] = assay: Fungicidal activity against Magnaporthe oryzae Cav. race 003 assessed as rice blast disease control at 31.3 ppm foliar application for 24 hr before inoculation by preventive manner
Podosphaera fuliginea [18] = assay: Fungicidal activity against Podosphaera fuliginea assessed as cucumber powdery mildew control at 0.125 ppm foliar application 24 hr before inoculation by preventive manner
Botrytis cinerea [19] = assay: Fungicidal activity against Botryotinia fuckeliana assessed as cucumber gray mold disease control at 2 ppm foliar application 24 hr before inoculation by preventive manner
[20] = tested on: Pseudoperonospora cubensis; assay: Fungicidal activity against Pseudoperonospora cubensis assessed as cucumber downy mildew disease control at 125 ppm foliar application 24 hr before inoculation onto the adaxial(treated) surface of leaf by preventive manner
[21] = tested on: Pseudoperonospora cubensis; assay: Fungicidal activity against Pseudoperonospora cubensis assessed as cucumber downy mildew disease control at 2 ppm foliar application 24 hr after inoculation by curative manner
Thanatephorus cucumeris [22] = assay: Fungicidal activity against Thanatephorus cucumeris assessed as rice sheath blight disease control at 31.3 ppm foliar application for 24 hr before inoculation by preventive manner
Pyricularia oryzae [23] = assay: Fungicidal activity against Magnaporthe oryzae Cav. race 003 assessed as rice blast disease control at 125 ppm foliar application for 24 hr before inoculation by preventive manner
Thanatephorus cucumeris [24] = assay: Fungicidal activity against Thanatephorus cucumeris assessed as rice sheath blight disease control at 7.8 ppm foliar application for 24 hr before inoculation by preventive manner
Podosphaera fuliginea [25] = assay: Fungicidal activity against Podosphaera fuliginea assessed as cucumber powdery mildew control at 7.8 ppm foliar application 24 hr before inoculation by preventive manner
Botrytis cinerea [26] = assay: Fungicidal activity against Botryotinia fuckeliana assessed as cucumber gray mold disease control at 31.3 ppm foliar application 24 hr before inoculation by preventive manner
Podosphaera fuliginea [27] = assay: Fungicidal activity against Podosphaera fuliginea assessed as cucumber powdery mildew control at 0.5 ppm foliar application 24 hr before inoculation by preventive manner
Botrytis cinerea [28] = assay: Fungicidal activity against Botryotinia fuckeliana assessed as cucumber gray mold disease control at 125 ppm foliar application 24 hr after inoculation by curative manner
Thanatephorus cucumeris [29] = assay: Fungicidal activity against Thanatephorus cucumeris assessed as rice sheath blight disease control at 7.8 ppm foliar application for 24 hr after inoculation by curative manner
Thanatephorus cucumeris [30] = assay: Fungicidal activity against Thanatephorus cucumeris assessed as rice sheath blight disease control at 2 ppm foliar application for 24 hr before inoculation by preventive manner
Podosphaera fuliginea [31] = assay: Fungicidal activity against Podosphaera fuliginea assessed as cucumber powdery mildew control at 2 ppm foliar application 24 hr after inoculation by curative manner
Pyricularia oryzae [32] = assay: Fungicidal activity against Magnaporthe oryzae Cav. race 003 assessed as rice blast disease control at 7.8 ppm foliar application for 24 hr before inoculation by preventive manner
[33] = tested on: Pseudoperonospora cubensis; assay: Fungicidal activity against Pseudoperonospora cubensis assessed as cucumber downy mildew disease control at 2 ppm foliar application 24 hr before inoculation onto the adaxial(treated) surface of leaf by preventive manner
Blumeria graminis [34] = assay: Fungicidal activity against Blumeria graminis f. sp. tritici assessed as wheat powdery mildew disease control at 125 ppm foliar application for 24 hr after inoculation by curative manner
Podosphaera fuliginea [35] = assay: Fungicidal activity against Podosphaera fuliginea assessed as cucumber powdery mildew control at 0.5 ppm foliar application 24 hr after inoculation by curative manner
[36] = tested on: Pseudoperonospora cubensis; assay: Fungicidal activity against Pseudoperonospora cubensis assessed as cucumber downy mildew disease control at 31.3 ppm foliar application 24 hr before inoculation onto the abaxial(treated) surface of leaf by preventive manner
Podosphaera fuliginea [37] = assay: Fungicidal activity against Podosphaera fuliginea assessed as cucumber powdery mildew control at 2 ppm foliar application 24 hr before inoculation by preventive manner
Botrytis cinerea [38] = assay: Fungicidal activity against Botryotinia fuckeliana assessed as cucumber gray mold disease control at 7.8 ppm foliar application 24 hr after inoculation by curative manner
[39] = tested on: Pseudoperonospora cubensis; assay: Fungicidal activity against Pseudoperonospora cubensis assessed as cucumber downy mildew disease control at 7.8 ppm foliar application 24 hr after inoculation by curative manner
Botrytis cinerea [40] = assay: Fungicidal activity against Botryotinia fuckeliana assessed as cucumber gray mold disease control at 2 ppm foliar application 24 hr after inoculation by curative manner
Blumeria graminis [41] = assay: Fungicidal activity against Blumeria graminis f. sp. tritici assessed as wheat powdery mildew disease control at 7.8 ppm foliar application for 24 hr after inoculation by curative manner
[42] = tested on: Pseudoperonospora cubensis; assay: Fungicidal activity against Pseudoperonospora cubensis assessed as cucumber downy mildew disease control at 31.3 ppm foliar application 24 hr before inoculation onto the adaxial(treated) surface of leaf by preventive manner
Podosphaera fuliginea [43] = assay: Fungicidal activity against Podosphaera fuliginea assessed as cucumber powdery mildew control at 7.8 ppm foliar application 24 hr after inoculation by curative manner
[44] = tested on: Pseudoperonospora cubensis; assay: Fungicidal activity against Pseudoperonospora cubensis assessed as cucumber downy mildew disease control at 2 ppm foliar application 24 hr before inoculation onto the abaxial(treated) surface of leaf by preventive manner
[45] = tested on: Pseudoperonospora cubensis; assay: Fungicidal activity against Pseudoperonospora cubensis assessed as cucumber downy mildew disease control at 7.8 ppm foliar application 24 hr before inoculation onto the adaxial(treated) surface of leaf by preventive manner
Botrytis cinerea [46] = assay: Fungicidal activity against Botryotinia fuckeliana assessed as cucumber gray mold disease control at 125 ppm foliar application 24 hr before inoculation by preventive manner
Thanatephorus cucumeris [47] = assay: Fungicidal activity against Thanatephorus cucumeris assessed as rice sheath blight disease control at 125 ppm foliar application for 24 hr after inoculation by curative manner
Thanatephorus cucumeris [48] = assay: Fungicidal activity against Thanatephorus cucumeris assessed as rice sheath blight disease control at 2 ppm foliar application for 24 hr after inoculation by curative manner
Blumeria graminis [49] = assay: Fungicidal activity against Blumeria graminis f. sp. tritici assessed as wheat powdery mildew disease control at 2 ppm foliar application for 24 hr after inoculation by curative manner
Blumeria graminis [50] = assay: Fungicidal activity against Blumeria graminis f. sp. tritici assessed as wheat powdery mildew disease control at 31.3 ppm foliar application for 24 hr after inoculation by curative manner
Thanatephorus cucumeris [51] = assay: Fungicidal activity against Thanatephorus cucumeris assessed as rice sheath blight disease control at 125 ppm foliar application for 24 hr before inoculation by preventive manner
[52] = tested on: Pseudoperonospora cubensis; assay: Fungicidal activity against Pseudoperonospora cubensis assessed as cucumber downy mildew disease control at 125 ppm foliar application 24 hr after inoculation by curative manner
[53] = tested on: Pseudoperonospora cubensis; assay: Fungicidal activity against Pseudoperonospora cubensis assessed as cucumber downy mildew disease control at 7.8 ppm foliar application 24 hr before inoculation onto the abaxial(treated) surface of leaf by preventive manner
Botrytis cinerea [54] = assay: Fungicidal activity against Botryotinia fuckeliana assessed as cucumber gray mold disease control at 31.3 ppm treated 24 hr before inoculation by preventive manner
Podosphaera fuliginea [55] = assay: Fungicidal activity against Podosphaera fuliginea assessed as cucumber powdery mildew disease control at 500 ppm treated 24 hr before inoculation by preventive manner

`CNC(=O)C(OC)c1cccc(COc2ccccc2Br)c1` (stereo not drawn) showed an Activity (Botrytis cinerea [1]) of 50%, an Activity (Podosphaera fuliginea [2]) of 90% and an Activity (Pyricularia oryzae [3]) of 90%.
Molecule `CNC(=O)C(OC)c1cccc(COc2ccc(C)cc2C)c1` (stereo not drawn) has an Activity (Podosphaera fuliginea [2]) of 90%, an Activity (Pyricularia oryzae [4]) of 90% and an Activity (Botrytis cinerea [5]) of 50%.
`CNC(=O)C(OC)c1cccc(COc2cc(C)ccc2C)c1` (stereo not drawn) gave an Activity [6] of 70%, an Activity (Blumeria graminis [7]) of 90% and an Activity (Thanatephorus cucumeris [8]) of 40%. The Activity (Pyricularia oryzae [9]) was 30%, the Activity [10] was 30% and the Activity (Podosphaera fuliginea [11]) was 30%. The Activity (Blumeria graminis [12]) was 97%, the Activity (Botrytis cinerea [13]) was 50% and the Activity (Podosphaera fuliginea [2]) was 90%. It also gave an Activity (Blumeria graminis [14]) of 90%, an Activity (Botrytis cinerea [15]) of 60% and an Activity (Blumeria graminis [16]) of 97%. The Activity (Pyricularia oryzae [17]) was 90%, the Activity (Podosphaera fuliginea [18]) was 30% and the Activity (Botrytis cinerea [19]) was 50%. For the same molecule, the Activity [20] was 97%, the Activity [21] was 0% and the Activity (Thanatephorus cucumeris [22]) was 40%. It also gave an Activity (Pyricularia oryzae [23]) of 95%, an Activity (Thanatephorus cucumeris [24]) of 20% and an Activity (Podosphaera fuliginea [25]) of 99%. The Activity (Botrytis cinerea [26]) was 80%, the Activity (Podosphaera fuliginea [27]) was 70% and the Activity (Botrytis cinerea [28]) was 80%. For the same molecule, the Activity (Thanatephorus cucumeris [29]) was 30%, the Activity (Thanatephorus cucumeris [30]) was 10% and the Activity (Podosphaera fuliginea [31]) was 100%. For the same molecule, the Activity (Pyricularia oryzae [4]) was 90%, the Activity (Pyricularia oryzae [32]) was 70% and the Activity [33] was 97%. It also gave an Activity (Blumeria graminis [34]) of 97%, an Activity (Podosphaera fuliginea [35]) of 70% and an Activity [36] of 70%. The Activity (Podosphaera fuliginea [37]) was 90%, the Activity (Botrytis cinerea [38]) was 50% and the Activity [39] was 0%. For the same molecule, the Activity (Botrytis cinerea [40]) was 20%, the Activity (Blumeria graminis [41]) was 90% and the Activity (Botrytis cinerea [5]) was 50%. It also gave an Activity [42] of 97%, an Activity (Podosphaera fuliginea [43]) of 100% and an Activity [44] of 50%. For the same molecule, the Activity [45] was 97%, the Activity (Botrytis cinerea [46]) was 80% and the Activity (Thanatephorus cucumeris [47]) was 70%. For the same molecule, the Activity (Thanatephorus cucumeris [48]) was 20%, the Activity (Blumeria graminis [49]) was 90% and the Activity (Blumeria graminis [50]) was 97%. It also gave an Activity (Thanatephorus cucumeris [51]) of 80%, an Activity [52] of 30% and an Activity [53] of 70%.
In the case of `CNC(=O)C(OC)c1cccc(COc2cc(C)cc(C)c2)c1` (stereo not drawn), the Activity (Botrytis cinerea [54]) is reported as 50%, the Activity (Pyricularia oryzae [3]) is reported as 90% and the Activity (Podosphaera fuliginea [55]) is reported as less than 90%.
With `CNC(=O)C(OC)c1cccc(COc2cc(C)cc(C)c2C)c1` (stereo not drawn) the Activity (Podosphaera fuliginea [2]) was 90%, the Activity (Pyricularia oryzae [4]) was 90% and the Activity (Botrytis cinerea [5]) was 50%.
